Measured values taken from ChEMBL document CHEMBL5303573, “Mapping human microbiome drug metabolism by gut bacteria and their genes” (Nature, 2019).

assay: The drug is tested on Collinsella intestinalis strain: DSM13280 for biotransformation. The drug concentrations were measured before and after a 12-h incubation by liquid-chromatography-coupled mass spectrometry (LC–MS); details: 2 µM

Row | SMILES | Bacterial Biotransformation
1 | CCN(CC)CC#CCOC(=O)C(O)(c1ccccc1)C1CCCCC1.Cl (configuration not stated) [OXYBUTYNIN CHLORIDE] | Compound NOT metabolized
2 | CC(C)N(CCC(C(N)=O)(c1ccccc1)c1ccccn1)C(C)C.O=P(O)(O)O (configuration not stated) [DISOPYRAMIDE PHOSPHATE] | Compound NOT metabolized
3 | CN1CCC(=C2c3ccccc3CC(=O)c3sccc32)CC1.O=C(O)/C=C/C(=O)O [KETOTIFEN FUMARATE] | Compound NOT metabolized
4 | CN1CCC(OC(c2ccccc2)c2ccccc2)CC1 | Compound NOT metabolized

assay: The drug is tested on Alistipes indistinctus strain: DSM22520 for biotransformation. The drug concentrations were measured before and after a 12-h incubation by liquid-chromatography-coupled mass spectrometry (LC–MS); details: 2 µM

Row | SMILES | Bacterial Biotransformation
5 | CCN(CC)CC#CCOC(=O)C(O)(c1ccccc1)C1CCCCC1.Cl (configuration not stated) [OXYBUTYNIN CHLORIDE] | Compound NOT metabolized
6 | CN1CCC(OC(c2ccccc2)c2ccccc2)CC1 | Compound NOT metabolized

assay: The drug is tested on Bacteroides coprophilus strain: DSM18228 for biotransformation. The drug concentrations were measured before and after a 12-h incubation by liquid-chromatography-coupled mass spectrometry (LC–MS); details: 2 µM

Row | SMILES | Bacterial Biotransformation
7 | CC(C)N(CCC(C(N)=O)(c1ccccc1)c1ccccn1)C(C)C.O=P(O)(O)O (configuration not stated) [DISOPYRAMIDE PHOSPHATE] | Compound NOT metabolized
8 | CN1CCC(=C2c3ccccc3CC(=O)c3sccc32)CC1.O=C(O)/C=C/C(=O)O [KETOTIFEN FUMARATE] | Compound NOT metabolized
9 | CN1CCC(OC(c2ccccc2)c2ccccc2)CC1 | Compound NOT metabolized

assay: The drug is tested on Bacteroides fragilis strain: HMW610 for biotransformation. The drug concentrations were measured before and after a 12-h incubation by liquid-chromatography-coupled mass spectrometry (LC–MS); details: 2 µM

Row | SMILES | Bacterial Biotransformation
10 | CCN(CC)CC#CCOC(=O)C(O)(c1ccccc1)C1CCCCC1.Cl (configuration not stated) [OXYBUTYNIN CHLORIDE] | Compound metabolized
11 | CC(C)N(CCC(C(N)=O)(c1ccccc1)c1ccccn1)C(C)C.O=P(O)(O)O (configuration not stated) [DISOPYRAMIDE PHOSPHATE] | Compound NOT metabolized
12 | CN1CCC(=C2c3ccccc3CC(=O)c3sccc32)CC1.O=C(O)/C=C/C(=O)O [KETOTIFEN FUMARATE] | Compound NOT metabolized

assay: The drug is tested on Bacteroides fragilis strain: ATCC43859 for biotransformation. The drug concentrations were measured before and after a 12-h incubation by liquid-chromatography-coupled mass spectrometry (LC–MS); details: 2 µM

Row | SMILES | Bacterial Biotransformation
13 | CC(C)N(CCC(C(N)=O)(c1ccccc1)c1ccccn1)C(C)C.O=P(O)(O)O (configuration not stated) [DISOPYRAMIDE PHOSPHATE] | Compound NOT metabolized
14 | CN1CCC(=C2c3ccccc3CC(=O)c3sccc32)CC1.O=C(O)/C=C/C(=O)O [KETOTIFEN FUMARATE] | Compound NOT metabolized
15 | CN1CCC(OC(c2ccccc2)c2ccccc2)CC1 | Compound NOT metabolized

assay: The drug is tested on Bacteroides ovatus strain: ATCC8483 for biotransformation. The drug concentrations were measured before and after a 12-h incubation by liquid-chromatography-coupled mass spectrometry (LC–MS); details: 2 µM

Row | SMILES | Bacterial Biotransformation
16 | CCN(CC)CC#CCOC(=O)C(O)(c1ccccc1)C1CCCCC1.Cl (configuration not stated) [OXYBUTYNIN CHLORIDE] | Compound NOT metabolized
17 | CC(C)N(CCC(C(N)=O)(c1ccccc1)c1ccccn1)C(C)C.O=P(O)(O)O (configuration not stated) [DISOPYRAMIDE PHOSPHATE] | Compound NOT metabolized
18 | CN1CCC(=C2c3ccccc3CC(=O)c3sccc32)CC1.O=C(O)/C=C/C(=O)O [KETOTIFEN FUMARATE] | Compound NOT metabolized
19 | CN1CCC(OC(c2ccccc2)c2ccccc2)CC1 | Compound NOT metabolized

assay: The drug is tested on Bacteroides pectinophilus strain: ATCC43243 for biotransformation. The drug concentrations were measured before and after a 12-h incubation by liquid-chromatography-coupled mass spectrometry (LC–MS); details: 2 µM

Row | SMILES | Bacterial Biotransformation
20 | CC(C)N(CCC(C(N)=O)(c1ccccc1)c1ccccn1)C(C)C.O=P(O)(O)O (configuration not stated) [DISOPYRAMIDE PHOSPHATE] | Compound NOT metabolized
21 | CN1CCC(=C2c3ccccc3CC(=O)c3sccc32)CC1.O=C(O)/C=C/C(=O)O [KETOTIFEN FUMARATE] | Compound NOT metabolized
22 | CN1CCC(OC(c2ccccc2)c2ccccc2)CC1 | Compound NOT metabolized

assay: The drug is tested on Parabacteroides merdae strain: ATCC43184 for biotransformation. The drug concentrations were measured before and after a 12-h incubation by liquid-chromatography-coupled mass spectrometry (LC–MS); details: 2 µM

Row | SMILES | Bacterial Biotransformation
23 | CCN(CC)CC#CCOC(=O)C(O)(c1ccccc1)C1CCCCC1.Cl (configuration not stated) [OXYBUTYNIN CHLORIDE] | Compound NOT metabolized
24 | CC(C)N(CCC(C(N)=O)(c1ccccc1)c1ccccn1)C(C)C.O=P(O)(O)O (configuration not stated) [DISOPYRAMIDE PHOSPHATE] | Compound NOT metabolized
25 | CN1CCC(=C2c3ccccc3CC(=O)c3sccc32)CC1.O=C(O)/C=C/C(=O)O [KETOTIFEN FUMARATE] | Compound NOT metabolized
26 | CN1CCC(OC(c2ccccc2)c2ccccc2)CC1 | Compound NOT metabolized

assay: The drug is tested on Blautia luti strain: DSM14534 for biotransformation. The drug concentrations were measured before and after a 12-h incubation by liquid-chromatography-coupled mass spectrometry (LC–MS); type: ADME; parameters: dose 2 uM, timepoint 0 vs 12 hours; details: 2 µM

Row | SMILES | Bacterial Biotransformation
27 | CCN(CC)CC#CCOC(=O)C(O)(c1ccccc1)C1CCCCC1.Cl (configuration not stated) [OXYBUTYNIN CHLORIDE] | Compound metabolized
28 | CC(C)N(CCC(C(N)=O)(c1ccccc1)c1ccccn1)C(C)C.O=P(O)(O)O (configuration not stated) [DISOPYRAMIDE PHOSPHATE] | Compound NOT metabolized
29 | CN1CCC(=C2c3ccccc3CC(=O)c3sccc32)CC1.O=C(O)/C=C/C(=O)O [KETOTIFEN FUMARATE] | Compound NOT metabolized
30 | CN1CCC(OC(c2ccccc2)c2ccccc2)CC1 | Compound NOT metabolized

assay: The drug is tested on Clostridium symbiosum strain: ATCC14940 for biotransformation. The drug concentrations were measured before and after a 12-h incubation by liquid-chromatography-coupled mass spectrometry (LC–MS); details: 2 µM

Row | SMILES | Bacterial Biotransformation
31 | CCN(CC)CC#CCOC(=O)C(O)(c1ccccc1)C1CCCCC1.Cl (configuration not stated) [OXYBUTYNIN CHLORIDE] | Compound metabolized
32 | CC(C)N(CCC(C(N)=O)(c1ccccc1)c1ccccn1)C(C)C.O=P(O)(O)O (configuration not stated) [DISOPYRAMIDE PHOSPHATE] | Compound NOT metabolized
33 | CN1CCC(=C2c3ccccc3CC(=O)c3sccc32)CC1.O=C(O)/C=C/C(=O)O [KETOTIFEN FUMARATE] | Compound NOT metabolized
34 | CN1CCC(OC(c2ccccc2)c2ccccc2)CC1 | Compound NOT metabolized

assay: The drug is tested on Coprococcus comes strain: ATCC27758 for biotransformation. The drug concentrations were measured before and after a 12-h incubation by liquid-chromatography-coupled mass spectrometry (LC–MS); type: ADME; parameters: dose 2 uM, timepoint 0 vs 12 hours; details: 2 µM

Row | SMILES | Bacterial Biotransformation
35 | CC(C)N(CCC(C(N)=O)(c1ccccc1)c1ccccn1)C(C)C.O=P(O)(O)O (configuration not stated) [DISOPYRAMIDE PHOSPHATE] | Compound NOT metabolized
36 | CN1CCC(=C2c3ccccc3CC(=O)c3sccc32)CC1.O=C(O)/C=C/C(=O)O [KETOTIFEN FUMARATE] | Compound NOT metabolized
37 | CN1CCC(OC(c2ccccc2)c2ccccc2)CC1 | Compound NOT metabolized

assay: The drug is tested on Dorea formicigenerans strain: ATCC27755 for biotransformation. The drug concentrations were measured before and after a 12-h incubation by liquid-chromatography-coupled mass spectrometry (LC–MS); details: 2 µM

Row | SMILES | Bacterial Biotransformation
38 | CCN(CC)CC#CCOC(=O)C(O)(c1ccccc1)C1CCCCC1.Cl (configuration not stated) [OXYBUTYNIN CHLORIDE] | Compound metabolized
39 | CC(C)N(CCC(C(N)=O)(c1ccccc1)c1ccccn1)C(C)C.O=P(O)(O)O (configuration not stated) [DISOPYRAMIDE PHOSPHATE] | Compound NOT metabolized
40 | CN1CCC(=C2c3ccccc3CC(=O)c3sccc32)CC1.O=C(O)/C=C/C(=O)O [KETOTIFEN FUMARATE] | Compound NOT metabolized
41 | CN1CCC(OC(c2ccccc2)c2ccccc2)CC1 | Compound NOT metabolized

assay: The drug is tested on Eubacterium rectale strain: ATCC33656 for biotransformation. The drug concentrations were measured before and after a 12-h incubation by liquid-chromatography-coupled mass spectrometry (LC–MS); details: agathobacter rectalis, 2 µM

Row | SMILES | Bacterial Biotransformation
42 | CC(C)N(CCC(C(N)=O)(c1ccccc1)c1ccccn1)C(C)C.O=P(O)(O)O (configuration not stated) [DISOPYRAMIDE PHOSPHATE] | Compound NOT metabolized
43 | CN1CCC(=C2c3ccccc3CC(=O)c3sccc32)CC1.O=C(O)/C=C/C(=O)O [KETOTIFEN FUMARATE] | Compound NOT metabolized
44 | CN1CCC(OC(c2ccccc2)c2ccccc2)CC1 | Compound NOT metabolized

assay: The drug is tested on Ruminococcus torques strain: ATCC27756 for biotransformation. The drug concentrations were measured before and after a 12-h incubation by liquid-chromatography-coupled mass spectrometry (LC–MS); type: ADME; parameters: dose 2 uM, timepoint 0 vs 12 hours; details: 2 µM

Row | SMILES | Bacterial Biotransformation
45 | CN1CCC(=C2c3ccccc3CC(=O)c3sccc32)CC1.O=C(O)/C=C/C(=O)O [KETOTIFEN FUMARATE] | Compound NOT metabolized
46 | CN1CCC(OC(c2ccccc2)c2ccccc2)CC1 | Compound NOT metabolized

assay: The drug is tested on Subdoligranulum variabile strain: DSM15176 for biotransformation. The drug concentrations were measured before and after a 12-h incubation by liquid-chromatography-coupled mass spectrometry (LC–MS); details: 2 µM

Row | SMILES | Bacterial Biotransformation
47 | CCN(CC)CC#CCOC(=O)C(O)(c1ccccc1)C1CCCCC1.Cl (configuration not stated) [OXYBUTYNIN CHLORIDE] | Compound NOT metabolized
48 | CC(C)N(CCC(C(N)=O)(c1ccccc1)c1ccccn1)C(C)C.O=P(O)(O)O (configuration not stated) [DISOPYRAMIDE PHOSPHATE] | Compound NOT metabolized
49 | CN1CCC(=C2c3ccccc3CC(=O)c3sccc32)CC1.O=C(O)/C=C/C(=O)O [KETOTIFEN FUMARATE] | Compound NOT metabolized
50 | CN1CCC(OC(c2ccccc2)c2ccccc2)CC1 | Compound NOT metabolized

assay: The drug is tested on Edwardsiella tarda strain: ATCC23685 for biotransformation. The drug concentrations were measured before and after a 12-h incubation by liquid-chromatography-coupled mass spectrometry (LC–MS); details: 2 µM

Row | SMILES | Bacterial Biotransformation
51 | CCN(CC)CC#CCOC(=O)C(O)(c1ccccc1)C1CCCCC1.Cl (configuration not stated) [OXYBUTYNIN CHLORIDE] | Compound metabolized
52 | CC(C)N(CCC(C(N)=O)(c1ccccc1)c1ccccn1)C(C)C.O=P(O)(O)O (configuration not stated) [DISOPYRAMIDE PHOSPHATE] | Compound NOT metabolized
53 | CN1CCC(=C2c3ccccc3CC(=O)c3sccc32)CC1.O=C(O)/C=C/C(=O)O [KETOTIFEN FUMARATE] | Compound NOT metabolized
54 | CN1CCC(OC(c2ccccc2)c2ccccc2)CC1 | Compound NOT metabolized

assay: The drug is tested on Enterobacter cancerogenus strain: ATCC35316 for biotransformation. The drug concentrations were measured before and after a 12-h incubation by liquid-chromatography-coupled mass spectrometry (LC–MS); details: 2 µM

Row | SMILES | Bacterial Biotransformation
55 | CCN(CC)CC#CCOC(=O)C(O)(c1ccccc1)C1CCCCC1.Cl (configuration not stated) [OXYBUTYNIN CHLORIDE] | Compound NOT metabolized
56 | CC(C)N(CCC(C(N)=O)(c1ccccc1)c1ccccn1)C(C)C.O=P(O)(O)O (configuration not stated) [DISOPYRAMIDE PHOSPHATE] | Compound NOT metabolized
57 | CN1CCC(=C2c3ccccc3CC(=O)c3sccc32)CC1.O=C(O)/C=C/C(=O)O [KETOTIFEN FUMARATE] | Compound NOT metabolized

details: bacteroides stercoris, 12 h, 2 µM
Description: The drug is tested on Bacteroides stercoris strain: ATCC43183 for biotransformation. The drug concentrations were measured before and after a 12-h incubation by liquid-chromatography-coupled mass spectrometry (LC–MS)

Row | SMILES | Bacterial Biotransformation
58 | CCN(CC)CC#CCOC(=O)C(O)(c1ccccc1)C1CCCCC1.Cl (configuration not stated) [OXYBUTYNIN CHLORIDE] | Compound NOT metabolized
59 | CC(C)N(CCC(C(N)=O)(c1ccccc1)c1ccccn1)C(C)C.O=P(O)(O)O (configuration not stated) [DISOPYRAMIDE PHOSPHATE] | Compound NOT metabolized
60 | CN1CCC(=C2c3ccccc3CC(=O)c3sccc32)CC1.O=C(O)/C=C/C(=O)O [KETOTIFEN FUMARATE] | Compound NOT metabolized
61 | CN1CCC(OC(c2ccccc2)c2ccccc2)CC1 | Compound NOT metabolized

details: enterocloster bolteae, 12 h, 2 µM
Description: The drug is tested on Clostridium bolteae strain: ATCCBAA-613 for biotransformation. The drug concentrations were measured before and after a 12-h incubation by liquid-chromatography-coupled mass spectrometry (LC–MS)

Row | SMILES | Bacterial Biotransformation
62 | CC(C)N(CCC(C(N)=O)(c1ccccc1)c1ccccn1)C(C)C.O=P(O)(O)O (configuration not stated) [DISOPYRAMIDE PHOSPHATE] | Compound NOT metabolized
